Test results published in patent publication US11426371B2, “Compositions and methods for treating cancer” (University of Virginia Patent Foundation, priority 2017, dated 2022).
Read-outs that look alike come from different tables or passages of the source.

Experiments:
Experiment in all cases: Cell viability, panel of AML cell lines
Assay type in all cases: cell-based
ME-1 = settings: Homo sapiens, ME-1 cells
Experimental: (§1) Representative human AML cell lines (FIG. 2A; upper and lower panels) HL60/VCR and (FIG. 2B; upper and lower panels) OCI-AML2 were treated with SACLAC for 24 and 48 hours. Viability was assessed by MTS assay at 24 and 48 hours and apoptosis was assessed by flow cytometry at 48 hours. Upper panels represent % viability and lower panels indicate % apoptosis.
(§2) Two representative human-derived AML cell lines, HL60/VCR and OCI-AML2, are shown. These studies have been expanded to a large panel of additional human AML cell lines (n=30, Table 1).

SET2 = settings: Homo sapiens, SET-2, SET2 cells
Experimental: as §1, §2

SKM1 = settings: Homo sapiens, SKM-1, SKM1 cells
Experimental: as §1, §2

EOL-1 = settings: Homo sapiens, EOL1, EOL-1 cells
Experimental: as §1, §2

OCI-AML2 = settings: Homo sapiens, OCI-AML2 cells
Experimental: as §1, §2

MOLM-14 = settings: Homo sapiens, MOLM-14 cells
Experimental: as §1, §2

ML2 = settings: Homo sapiens, ML-2, ML2 cells
Experimental: as §1, §2

OCI-AML4 = settings: Homo sapiens, OCI-AML4 cells
Experimental: as §1, §2

HL60 = settings: Homo sapiens, HL-60, HL60 cells
Experimental: as §1, §2

THP-1 = settings: Homo sapiens, THP-1 cells
Experimental: as §1, §2

MV4-11 = settings: Homo sapiens, MV4-11 cells
Experimental: as §1, §2

SKNO1 = settings: Homo sapiens, SKNO-1, SKNO1 cells
Experimental: as §1, §2

THF-1 = settings: Homo sapiens, THF-1 cells
Experimental: as §1, §2

NOMO1 = settings: Homo sapiens, NOMO-1, NOMO1 cells
Experimental: as §1, §2

OCI-AML3 = settings: Homo sapiens, OCI-AML-3, OCI-AML3 cells
Experimental: as §1, §2

NB4 = settings: Homo sapiens, NB-4, NB4 cells
Experimental: as §1, §2

MM-6 = settings: Homo sapiens, MM-6 cells
Experimental: as §1, §2

U937 = settings: Homo sapiens, U-937, U937 cells
Experimental: as §1, §2

Kasumi-6 = settings: Homo sapiens, Kasumi-6 cells
Experimental: as §1, §2

KGI = settings: Homo sapiens, KGI cells
Experimental: as §1, §2

KG1a = settings: Homo sapiens, KG-1a, KG1a cells
Experimental: as §1, §2

OCI-M2 = settings: Homo sapiens
Experimental: as §1, §2

HEL = settings: Homo sapiens, HEL cells
Experimental: as §1, §2

HL60/VCR = settings: Homo sapiens, HL60/VCR cells (drug resistant variant)
Experimental: as §1, §2

KGIa/ABTR = settings: Homo sapiens, KGIa/ABTR cells
Experimental: as §1, §2

MOLM-13 = settings: Homo sapiens, MOLM-13 cells
Experimental: as §1, §2

CCCCCCCCCCCCCCC[C@@H](O)[C@H](CO)NC(=O)CCl [SACLAC, 2-chloro-N-((2S,3R)-1,3-dihydroxyoctadecan-2-yl)acetamide]
EC50 (ME-1; 24 h, read-out: EC50 24 h): 2100 nM | EC50 (ME-1; 48 h, read-out: EC50 48 h): 1200 nM | EC50 (SET2; 24 h, read-out: EC50 24 h): 2600 nM | EC50 (SET2; 48 h, read-out: EC50 48 h): 3300 nM | EC50 (SKM1; 24 h, read-out: EC50 24 h): 1600 nM | EC50 (SKM1; 48 h, read-out: EC50 48 h): 700 nM | EC50 (EOL-1; 24 h, read-out: EC50 24 h): 1000 nM | EC50 (EOL-1; 48 h, read-out: EC50 48 h): 1100 nM | EC50 (OCI-AML2; 24 h, read-out: EC50 24 h): 1800 nM | EC50 (OCI-AML2; 48 h, read-out: EC50 48 h): 1100 nM | EC50 (MOLM-14; 24 h, read-out: EC50 24 h): 500 nM | EC50 (MOLM-14; 48 h, read-out: EC50 48 h): 500 nM | EC50 (ML2; 24 h, read-out: EC50 24 h): 1700 nM | EC50 (ML2; 48 h, read-out: EC50 48 h): 1800 nM | EC50 (OCI-AML4; 24 h, read-out: EC50 24 h): 1400 nM | EC50 (OCI-AML4; 48 h, read-out: EC50 48 h): 700 nM | EC50 (HL60; 24 h, read-out: EC50 24 h): 1800 nM | EC50 (HL60; 48 h, read-out: EC50 48 h): 1200 nM | EC50 (THP-1; 24 h, read-out: EC50 24 h): 2600 nM | EC50 (THP-1; 48 h, read-out: EC50 48 h): 2200 nM | EC50 (MV4-11; 24 h, read-out: EC50 24 h): 2300 nM | EC50 (MV4-11; 48 h, read-out: EC50 48 h): 1300 nM | EC50 (SKNO1; 24 h, read-out: EC50 24 h): 900 nM | EC50 (SKNO1; 48 h, read-out: EC50 48 h): 800 nM | EC50 (THF-1; 24 h, read-out: EC50 24 h): 6700 nM | EC50 (THF-1; 48 h, read-out: EC50 48 h): 4800 nM | EC50 (NOMO1; 24 h, read-out: EC50 24 h): 1100 nM | EC50 (NOMO1; 48 h, read-out: EC50 48 h): 800 nM | EC50 (OCI-AML3; 24 h, read-out: EC50 24 h): 600 nM | EC50 (OCI-AML3; 48 h, read-out: EC50 48 h): 400 nM | EC50 (NB4; 24 h, read-out: EC50 24 h): 200 nM | EC50 (NB4; 48 h, read-out: EC50 48 h): 600 nM | EC50 (MM-6; 24 h, read-out: EC50 24 h): 7800 nM | EC50 (MM-6; 48 h, read-out: EC50 48 h): 6000 nM | EC50 (U937; 24 h, read-out: EC50 24 h): 1000 nM | EC50 (U937; 48 h, read-out: EC50 48 h): 1700 nM | EC50 (Kasumi-6; 24 h, read-out: EC50 24 h): 2100 nM | EC50 (Kasumi-6; 48 h, read-out: EC50 48 h): 2700 nM | EC50 (KGI; 24 h, read-out: EC50 24 h): 3200 nM | EC50 (KGI; 48 h, read-out: EC50 48 h): 2700 nM | EC50 (KG1a; 24 h, read-out: EC50 24 h): 5600 nM | EC50 (KG1a; 48 h, read-out: EC50 48 h): 3500 nM | EC50 (OCI-M2; OCI-M2, 24 h, read-out: EC50 24 h): > 10000 nM | EC50 (OCI-M2; OCI-M2, 48 h, read-out: EC50 48 h): > 10000 nM | viability at 10 µM (OCI-M2; OCI-M2 cells, 10 μM, read-out: viable cells at the highest tested dose): 60% | EC50 (HEL; 24 h, read-out: EC50 24 h): 1200 nM | EC50 (HEL; 48 h, read-out: EC50 48 h): 1600 nM | EC50 (HL60/VCR; 24 h, read-out: EC50 24 h): 3300 nM | EC50 (HL60/VCR; 48 h, read-out: EC50 48 h): 2400 nM | EC50 (KGIa/ABTR; 24 h, read-out: EC50 24 h): 2900 nM | EC50 (KGIa/ABTR; 48 h, read-out: EC50 48 h): 2700 nM | EC50 (MOLM-13; 24 h, read-out: EC50 24 h): 1100 nM | EC50 (MOLM-13; 48 h, read-out: EC50 48 h): 1400 nM
